Data taken from US12173088B2, “Anti-microbial peptides” (priority 2018, dated 2024).
In brackets after ≈: the same amount, converted by molar mass. Where two headings read alike, the source gives them in different places. One block for each compound: values may come before it. Peptide text beside a SMILES is read from it.

Tests used:
[1] = tested on: P. aeruginosa PAO1; assay type: cell-based, Pseudomonas aeruginosa
How it was run: (§1)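 Broth microdilution in tryptic soy broth: log-phase cultures (OD600 ≈0.5) diluted to OD600 0.001, given two-fold peptide dilutions, incubated overnight at 37° C. Growth read at 630 nm.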

[2] = Hemolytic assay; assay type: cell-based, human; details: human, human red blood cells, 2% (v/v)
How it was run: (§2)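 HL50 marks the peptide level lysing half of a 2% (v/v) suspension of washed human erythrocytes after 1 h at 37 °C. Released hemoglobin measured at 545 nm, scaled between PBS (0%) and Triton X-100 (2% or 1%; 100%). Selectivity index computed as HL50 over MIC.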

[3] = tested on: S. aureus USA300; experiment: microbe, parasite or virus in culture; assay type: cell-based, Staphylococcus aureus; details: for MIC S. aureus USA 300: quantified by UV
How it was run: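 Broth microdilution: log-phase cultures in tryptic soy broth diluted to OD600 0.001, exposed to two-fold diluted peptides at 37° C overnight, growth read at 630 nm. Medium effects on S. aureus USA300 tested with up to 200 mM NaCl, 2 mM CaCl2, 5-10% human serum, mouse plasma, fluids or tissue homogenate supernatants.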

[4] = tested on: E. coli ATCC 25922; assay type: cell-based, Escherichia coli
How it was run: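 Peptides, serially diluted two-fold, were incubated overnight at 37 °C with E. coli ATCC 25922 from log-phase cultures adjusted to OD600 0.001. Turbidity at 630 nm served as the read-out in this broth microdilution format.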

[5] = tested on: human red blood cells (hRBCs); experiment: Hemolytic assay; assay type: cell-based
How it was run: as §2

[6] = tested on: K. pneumoniae ATCC 13883; assay type: cell-based, Klebsiella pneumoniae; details: quantified by UV
How it was run: as §1

[7] = Table 4, quantitated based on weight
[8] = Table 4, quantitated based on weight, read-out: HL50, peptide concentration for 50% hemolysis

SMILES: CC(C)C[C@H](NC(=O)[C@H](CCCCN)NC(=O)CNC(=O)[C@H](CC(C)C)NC(=O)[C@H](CC(C)C)NC(=O)[C@H](CC(C)C)NC(=O)[C@H](CO)NC(=O)[C@H](CC(C)C)NC(=O)[C@H](CC(C)C)NC(=O)[C@H](CC(C)C)NC(=O)[C@H](CO)NC(=O)[C@H](CC(C)C)NC(=O)CN)C(N)=O [DFT504, GLSLLLSLLLGKL] (H-GLSLLLSLLLGKL-NH2; N-terminus and C-terminus assumed)
- MIC PA (P. aeruginosa PAO1) ([1]; PAO1): >25 µM
- HC50 at 1 h [2]: 8 µM
- MIC SA (S. aureus USA300) ([3]; USA300): 6.2 µM (≈ 8.3 µg/mL)
- MIC EC (E. coli ATCC 25922) ([4]; ATCC 25922): >25 µM

SMILES: CC(C)C[C@H](NC(=O)[C@H](CC(C)C)NC(=O)[C@H](CCCCN)NC(=O)CNC(=O)[C@H](CC(C)C)NC(=O)[C@H](CC(C)C)NC(=O)[C@H](CC(C)C)NC(=O)[C@H](CC(C)C)NC(=O)[C@H](CO)NC(=O)[C@H](CO)NC(=O)[C@H](CC(C)C)NC(=O)[C@H](CC(C)C)NC(=O)CN)C(N)=O [DFT505, GLLSSLLLLGKLL] (H-GLLSSLLLLGKLL-NH2; N-terminus and C-terminus assumed)
- MIC PA (P. aeruginosa PAO1) ([1]; PAO1): >25 µM
- HC50 at 1 h [2]: 20 µM
- MIC SA (S. aureus USA300) ([3]; USA300): 3.1 µM (≈ 4.15 µg/mL)
- MIC EC (E. coli ATCC 25922) ([4]; ATCC 25922): >25 µM

SMILES: CC(C)C[C@H](NC(=O)[C@H](CC(C)C)NC(=O)CNC(=O)[C@H](CC(C)C)NC(=O)[C@H](CC(C)C)NC(=O)[C@H](CO)NC(=O)[C@H](CC(C)C)NC(=O)[C@H](CC(C)C)NC(=O)[C@H](CO)NC(=O)[C@H](CC(C)C)NC(=O)[C@H](CC(C)C)NC(=O)[C@H](CCCCN)NC(=O)CN)C(N)=O [DFT527, GKLLSLLSLLGLL] (H-GKLLSLLSLLGLL-NH2; N-terminus and C-terminus assumed)
- MIC PA (P. aeruginosa PAO1) ([1]; PAO1): >25 µM
- HC50 at 1 h [2]: 20 µM
- MIC SA (S. aureus USA300) ([3]; USA300): 3.1 µM (≈ 4.15 µg/mL)
- MIC EC (E. coli ATCC 25922) ([4]; ATCC 25922): >25 µM

SMILES: CC(C)C[C@H](NC(=O)[C@H](CC(C)C)NC(=O)[C@H](CCCCN)NC(=O)[C@H](CC(C)C)NC(=O)CNC(=O)[C@H](CC(C)C)NC(=O)[C@H](CO)NC(=O)[C@H](CC(C)C)NC(=O)[C@H](CC(C)C)NC(=O)[C@H](CO)NC(=O)[C@H](CC(C)C)NC(=O)[C@H](CC(C)C)NC(=O)CN)C(N)=O [DFT531, GLLSLLSLGLKLL] (H-GLLSLLSLGLKLL-NH2; N-terminus and C-terminus assumed)
- MIC PA (P. aeruginosa PAO1) [1, 7]: >25 µM
- HC50 at 1 h [2, 8]: 7 µM
- MIC SA (S. aureus USA300) [3, 7]: 0.8 µM (≈ 1.07 µg/mL)
- MIC EC (E. coli ATCC 25922) [4, 7]: >25 µM

SMILES: CC(C)C[C@H](NC(=O)[C@H](CC(C)C)NC(=O)[C@H](CCCCN)NC(=O)[C@H](CC(C)C)NC(=O)CNC(=O)[C@H](CC(C)C)NC(=O)[C@H](CO)NC(=O)[C@H](CC(C)C)NC(=O)[C@H](CC(C)C)NC(=O)[C@H](CC(C)C)NC(=O)[C@H](CO)NC(=O)[C@H](CC(C)C)NC(=O)[C@@H](N)CCCCN)C(N)=O [DFT560, KLSLLLSLGLKLL] (H-KLSLLLSLGLKLL-NH2; N-terminus and C-terminus assumed)
- MIC PA (P. aeruginosa PAO1) ([1]; PAO1): >25 µM
- HC50 at 1 h [2]: 25 µM
- MIC SA (S. aureus USA300) [3, 7]: 1.6 µM (≈ 2.26 µg/mL)
- MIC EC (E. coli ATCC 25922) ([4]; ATCC 25922): >25 µM

SMILES: CC(C)C[C@H](NC(=O)[C@H](CC(C)C)NC(=O)[C@H](CCCCN)NC(=O)CNC(=O)[C@H](CC(C)C)NC(=O)[C@H](CC(C)C)NC(=O)[C@H](CO)NC(=O)[C@H](CC(C)C)NC(=O)[C@H](CC(C)C)NC(=O)[C@H](CO)NC(=O)[C@H](CC(C)C)NC(=O)[C@H](CC(C)C)NC(=O)CN)C(N)=O [DFTamP1, GLLSLLSLLGKLL] (H-GLLSLLSLLGKLL-NH2; N-terminus assumed)
- MIC P. aeruginosa PAO1 ([1]; Table 2, quantified by UV): >25 µM
- MIC PA (P. aeruginosa PAO1) [1, 7]: >25 µM
- HC50 at 1 h [2, 8]: 10 µM
- HL50 ([5]; Table 2, lysis of 50% hRBCs (2% v/v)): <3.1 µM
- HL50 ([5]; Table 3, hRBCs 2% v/v): <3.1 µM
- MIC ([3]; 1 mM Ca2+): 0.78 µM (≈ 1.04 µg/mL)
- MIC ([3]; 2 mM Ca2+): 0.78 to 1.56 µM
- MIC ([3]; 50 mM NaCl): 0.78 µM (≈ 1.04 µg/mL)
- MIC ([3]; 100 mM NaCl): 0.78 µM (≈ 1.04 µg/mL)
- MIC ([3]; 200 mM NaCl): 0.78 µM (≈ 1.04 µg/mL)
- MIC ([3]; Human serum (5%), Table 5): 12.5 µM (≈ 16.7 µg/mL)
- MIC ([3]; Murine plasma (5%), Table 5): 6.2^ 2 μM
- MIC ([3]; NaCl (150 mM), Table 5): 3.1 to 6.2 µM
- MIC ([3]; No salts added, Table 6, by UV): 0.78 µM
- MIC S. aureus USA 300 ([3]; Table 2, peptides amidated): 0.78 µM (≈ 1.04 µg/mL)
- MIC S. aureus USA 300 ([3]; Table 3): 0.78 µM (≈ 1.04 µg/mL)
- MIC SA (S. aureus USA300) [3, 7]: 3.1 µM (≈ 4.15 µg/mL)
- MIC ([3]; pH 6.8, Table 5, by weight): 6.2 µM (≈ 8.3 µg/mL)
- MIC ([3]; pH 7.4, Table 5): 3.1 µM (≈ 4.15 µg/mL)
- MIC ([3]; pH 8.0, Table 5): 3.1 µM (≈ 4.15 µg/mL)
- MIC E. coli ATCC 25922 ([4]; Table 2, quantified by UV): >25 µM
- MIC EC (E. coli ATCC 25922) [4, 7]: >25 µM
- MIC K. pneumoniae ([6]; Table 2): >25 µM
- MIC K. pneumonia ATCC 13883 ([6]; Table 3): >25 µM

The next lines start with results.

- MIC PA (P. aeruginosa PAO1) ([1]; PAO1): >25 µM
- MIC SA (S. aureus USA300) ([3]; USA300): 1.6 µM (≈ 2.14 µg/mL)
- MIC EC (E. coli ATCC 25922) ([4]; ATCC 25922): >25 µM
SMILES: CC(C)C[C@H](NC(=O)[C@H](CC(C)C)NC(=O)[C@H](CCCCN)NC(=O)[C@H](CC(C)C)NC(=O)CNC(=O)[C@H](CC(C)C)NC(=O)[C@H](CO)NC(=O)[C@H](CC(C)C)NC(=O)[C@H](CC(C)C)NC(=O)[C@H](CO)NC(=O)CNC(=O)[C@H](CC(C)C)NC(=O)[C@@H](N)CC(C)C)C(N)=O [DFT532, LLGSLLSLGLKLL] (H-LLGSLLSLGLKLL-NH2; N-terminus and C-terminus assumed)
- HC50 at 1 h [2]: 13 µM

- MIC PA (P. aeruginosa PAO1) ([1]; PAO1): >25 µM
- MIC SA (S. aureus USA300) ([3]; USA300): 6.2 µM (≈ 8.74 µg/mL)
- MIC EC (E. coli ATCC 25922) ([4]; ATCC 25922): >25 µM
SMILES: CC(C)C[C@H](NC(=O)[C@H](CC(C)C)NC(=O)[C@H](CCCCN)NC(=O)[C@H](CC(C)C)NC(=O)[C@H](CCCCN)NC(=O)[C@H](CC(C)C)NC(=O)[C@H](CO)NC(=O)[C@H](CC(C)C)NC(=O)[C@H](CC(C)C)NC(=O)[C@H](CC(C)C)NC(=O)[C@H](CO)NC(=O)[C@H](CC(C)C)NC(=O)CN)C(N)=O [DFT563, GLSLLLSLKLKLL] (H-GLSLLLSLKLKLL-NH2; N-terminus and C-terminus assumed)
- HC50 at 1 h [2]: > 300 µM

- MIC PA (P. aeruginosa PAO1) ([1]; PAO1): >25 µM
- MIC ([3]; USA300): 3.1 µM (≈ 4.4 µg/mL)
- MIC ([3]; USA300, pH 6.8): 1.6 µM (≈ 2.27 µg/mL)
- MIC ([3]; USA300, pH 7.4): 3.1 µM (≈ 4.4 µg/mL)
- MIC ([3]; USA300, pH 8): 1.6 µM (≈ 2.27 µg/mL)
- MIC EC (E. coli ATCC 25922) ([4]; ATCC 25922): >25 µM
SMILES: CC(C)C[C@H](NC(=O)[C@H](CC(C)C)NC(=O)[C@H](CCCCN)NC(=O)[C@H](CC(C)C)NC(=O)CNC(=O)[C@H](CC(C)C)NC(=O)[C@H](CCCCN)NC(=O)[C@H](CC(C)C)NC(=O)[C@H](CC(C)C)NC(=O)[C@H](CC(C)C)NC(=O)[C@H](CCCCN)NC(=O)[C@H](CC(C)C)NC(=O)CN)C(N)=O [DFT564, GLKLLLKLGLKLL] (H-GLKLLLKLGLKLL-NH2; N-terminus and C-terminus assumed)
- HC50 at 1 h [2]: < 25 µM

- MIC PA (P. aeruginosa PAO1) ([1]; PAO1): >25 µM
- MIC ([3]; USA300): 3.1 µM (≈ 4.63 µg/mL)
- MIC SA (S. aureus USA300) ([3]; USA300): 0.8 µM (≈ 1.19 µg/mL)
- MIC ([3]; USA300, pH 6.8): 3.1 to 6.2 µM
- MIC ([3]; USA300, pH 7.4): 3.1 µM (≈ 4.63 µg/mL)
- MIC ([3]; USA300, pH 8): 3.1 µM (≈ 4.63 µg/mL)
- MIC EC (E. coli ATCC 25922) ([4]; ATCC 25922): >25 µM
SMILES: CC(C)C[C@H](NC(=O)[C@H](CC(C)C)NC(=O)[C@H](CCCCN)NC(=O)[C@H](CC(C)C)NC(=O)CNC(=O)[C@H](CC(C)C)NC(=O)[C@H](CCCCN)NC(=O)[C@H](CC(C)C)NC(=O)[C@H](CC(C)C)NC(=O)[C@H](CC(C)C)NC(=O)[C@H](CCCCN)NC(=O)[C@H](CC(C)C)NC(=O)[C@@H](N)CCCCN)C(N)=O [DFT565, KLKLLLKLGLKLL] (H-KLKLLLKLGLKLL-NH2; N-terminus and C-terminus assumed)
- HC50 at 1 h [2]: 50 µM
